From the supplement of paper PMC10307832

What was measured:
Assay in all cases: relative viability (nuclei count vs DMSO), 5 days (fraction); higher = more cells survive
[1] = system: UMC-11
Outline: (§1)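 Relative viability equals treated-well nuclei counts divided by vehicle-well nuclei counts. Counts came from 4× images of lung cancer cell lines grown in 1536-well plates for 5 days after pin-tool dosing on the day after seeding. Dosing used one drug alone or a fixed anchor-drug dose plus five library-drug doses (not always all listed) in √10 steps, and values are medians of duplicate plates.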

[2] = system: NCI-H2405
Outline: as §1

[3] = system: NCI-H1437
Outline: as §1

[4] = system: LCLC-97TM1
Outline: as §1

[5] = system: NCI-H2085
Outline: as §1

[6] = system: NCI-H441
Outline: as §1

[7] = system: NCI-H2170
Outline: as §1

[8] = system: ChaGo-K-1
Outline: as §1

[9] = system: ABC-1
Outline: as §1

[10] = system: NCI-H2023
Outline: as §1

[11] = system: HCC-78
Outline: as §1

[12] = system: NCI-H322M
Outline: as §1

[13] = system: NCI-H1355
Outline: as §1

[14] = system: SK-MES-1
Outline: as §1

[15] = system: NCI-H2009
Outline: as §1

[16] = system: LOU-NH91
Outline: as §1

[17] = system: HOP-62
Outline: as §1

[18] = system: NCI-H727
Outline: as §1

[19] = system: NCI-H23
Outline: as §1

[20] = system: NCI-H1792
Outline: as §1

[21] = system: RERF-LC-KJ
Outline: as §1

[22] = system: NCI-H650
Outline: as §1

[23] = system: NCI-H1755
Outline: as §1

Structure (SMILES): O=c1[nH]c2ccccc2n1C1CCN(CCCC(c2ccc(F)cc2)c2ccc(F)cc2)CC1 [Pimozide] + Cc1nc(Nc2ncc(C(=O)Nc3c(C)cccc3Cl)s2)cc(N2CCN(CCO)CC2)n1 [Dasatinib] (partner 0.075 µM)
- relative viability ([1]; first compound 0.08 µM): 0.46
- relative viability ([1]; first compound 0.253 µM): 0.45
- relative viability ([1]; first compound 0.8 µM): 0.468
- relative viability ([1]; first compound 2.53 µM): 0.431
- relative viability ([1]; first compound 8 µM): 0.424
- relative viability ([2]; first compound 0.08 µM): 0.219
- relative viability ([2]; first compound 0.253 µM): 0.228
- relative viability ([2]; first compound 0.8 µM): 0.198
- relative viability ([2]; first compound 2.53 µM): 0.187
- relative viability ([2]; first compound 8 µM): 0.188
- relative viability ([3]; first compound 0.08 µM): 0.483
- relative viability ([3]; first compound 0.253 µM): 0.43
- relative viability ([3]; first compound 0.8 µM): 0.402
- relative viability ([3]; first compound 2.53 µM): 0.289
- relative viability ([3]; first compound 8 µM): 0.249
- relative viability ([4]; first compound 0.08 µM): 0.94
- relative viability ([4]; first compound 0.253 µM): 0.811
- relative viability ([4]; first compound 0.8 µM): 0.797
- relative viability ([4]; first compound 2.53 µM): 0.818
- relative viability ([4]; first compound 8 µM): 0.626
- relative viability ([5]; first compound 0.08 µM): 0.209
- relative viability ([5]; first compound 0.253 µM): 0.249
- relative viability ([5]; first compound 0.8 µM): 0.221
- relative viability ([5]; first compound 2.53 µM): 0.232
- relative viability ([5]; first compound 8 µM): 0.257
- relative viability ([6]; first compound 0.08 µM): 0.86
- relative viability ([6]; first compound 0.253 µM): 0.724
- relative viability ([6]; first compound 0.8 µM): 0.605
- relative viability ([6]; first compound 2.53 µM): 0.387
- relative viability ([6]; first compound 8 µM): 0.521
- relative viability ([7]; first compound 0.08 µM): 0.432
- relative viability ([7]; first compound 0.253 µM): 0.475
- relative viability ([7]; first compound 0.8 µM): 0.627
- relative viability ([7]; first compound 2.53 µM): 0.555
- relative viability ([7]; first compound 8 µM): 0.599
- relative viability ([8]; first compound 0.08 µM): 0.613
- relative viability ([8]; first compound 0.253 µM): 0.586
- relative viability ([8]; first compound 0.8 µM): 0.509
- relative viability ([8]; first compound 2.53 µM): 0.522
- relative viability ([8]; first compound 8 µM): 0.595
- relative viability ([9]; first compound 0.08 µM): 0.521
- relative viability ([9]; first compound 0.253 µM): 0.48
- relative viability ([9]; first compound 0.8 µM): 0.518
- relative viability ([9]; first compound 2.53 µM): 0.388
- relative viability ([9]; first compound 8 µM): 0.396
- relative viability ([10]; first compound 0.08 µM): 0.497
- relative viability ([10]; first compound 0.253 µM): 0.547
- relative viability ([10]; first compound 0.8 µM): 0.518
- relative viability ([10]; first compound 2.53 µM): 0.438
- relative viability ([10]; first compound 8 µM): 0.451
- relative viability ([11]; first compound 0.08 µM): 0.387
- relative viability ([11]; first compound 0.8 µM): 0.327
- relative viability ([11]; first compound 2.53 µM): 0.345
- relative viability ([11]; first compound 8 µM): 0.373
- relative viability ([12]; first compound 0.253 µM): 0.234
- relative viability ([12]; first compound 0.8 µM): 0.247
- relative viability ([12]; first compound 2.53 µM): 0.257
- relative viability ([12]; first compound 8 µM): 0.231
- relative viability ([13]; first compound 0.08 µM): 0.744
- relative viability ([13]; first compound 0.253 µM): 0.722
- relative viability ([13]; first compound 0.8 µM): 0.671
- relative viability ([13]; first compound 2.53 µM): 0.672
- relative viability ([13]; first compound 8 µM): 0.732
- relative viability ([14]; first compound 0.08 µM): 0.313
- relative viability ([14]; first compound 0.253 µM): 0.41
- relative viability ([14]; first compound 0.8 µM): 0.358
- relative viability ([14]; first compound 2.53 µM): 0.325
- relative viability ([14]; first compound 8 µM): 0.336
- relative viability ([15]; first compound 0.08 µM): 0.307
- relative viability ([15]; first compound 0.253 µM): 0.326
- relative viability ([15]; first compound 0.8 µM): 0.328
- relative viability ([15]; first compound 2.53 µM): 0.214
- relative viability ([15]; first compound 8 µM): 0.188
- relative viability ([16]; first compound 0.08 µM): 0.44
- relative viability ([16]; first compound 0.253 µM): 0.564
- relative viability ([16]; first compound 0.8 µM): 0.537
- relative viability ([16]; first compound 2.53 µM): 0.572
- relative viability ([16]; first compound 8 µM): 0.579
- relative viability ([17]; first compound 0.08 µM): 0.698
- relative viability ([17]; first compound 0.253 µM): 0.617
- relative viability ([17]; first compound 2.53 µM): 0.685
- relative viability ([17]; first compound 8 µM): 0.651
- relative viability ([18]; first compound 0.08 µM): 0.36
- relative viability ([18]; first compound 0.253 µM): 0.347
- relative viability ([18]; first compound 0.8 µM): 0.4
- relative viability ([18]; first compound 2.53 µM): 0.358
- relative viability ([18]; first compound 8 µM): 0.405
- relative viability ([19]; first compound 0.08 µM): 0.887
- relative viability ([19]; first compound 0.253 µM): 0.84
- relative viability ([19]; first compound 0.8 µM): 0.71
- relative viability ([19]; first compound 2.53 µM): 0.679
- relative viability ([19]; first compound 8 µM): 0.802
- relative viability ([20]; first compound 0.08 µM): 0.89
- relative viability ([20]; first compound 0.253 µM): 0.823
- relative viability ([20]; first compound 0.8 µM): 0.769
- relative viability ([20]; first compound 2.53 µM): 0.973
- relative viability ([20]; first compound 8 µM): 0.849
- relative viability ([21]; first compound 0.08 µM): 0.775
- relative viability ([21]; first compound 0.253 µM): 0.611
- relative viability ([21]; first compound 0.8 µM): 0.696
- relative viability ([21]; first compound 2.53 µM): 0.66
- relative viability ([21]; first compound 8 µM): 0.501
- relative viability ([22]; first compound 0.08 µM): 0.501
- relative viability ([22]; first compound 0.253 µM): 0.454
- relative viability ([22]; first compound 0.8 µM): 0.453
- relative viability ([22]; first compound 2.53 µM): 0.487
- relative viability ([22]; first compound 8 µM): 0.498
- relative viability ([23]; first compound 0.08 µM): 0.372
- relative viability ([23]; first compound 0.253 µM): 0.446
- relative viability ([23]; first compound 0.8 µM): 0.426
- relative viability ([23]; first compound 2.53 µM): 0.456
- relative viability ([23]; first compound 8 µM): 0.348
